# According to US20050239784A1 (priority 2002, published 2005):
# Read-outs that look alike come from different tables or passages of the source.
# Key:
# [1] = molecular target: CDK4 (Homo sapiens, UniProt P11802); experiment: biochemical
# [2] = molecular target: T1, AKT3 (Homo sapiens, UniProt Q9Y243); experiment: biochemical
# Target sequence in this assay (Q9Y243 whole entry, species assumed): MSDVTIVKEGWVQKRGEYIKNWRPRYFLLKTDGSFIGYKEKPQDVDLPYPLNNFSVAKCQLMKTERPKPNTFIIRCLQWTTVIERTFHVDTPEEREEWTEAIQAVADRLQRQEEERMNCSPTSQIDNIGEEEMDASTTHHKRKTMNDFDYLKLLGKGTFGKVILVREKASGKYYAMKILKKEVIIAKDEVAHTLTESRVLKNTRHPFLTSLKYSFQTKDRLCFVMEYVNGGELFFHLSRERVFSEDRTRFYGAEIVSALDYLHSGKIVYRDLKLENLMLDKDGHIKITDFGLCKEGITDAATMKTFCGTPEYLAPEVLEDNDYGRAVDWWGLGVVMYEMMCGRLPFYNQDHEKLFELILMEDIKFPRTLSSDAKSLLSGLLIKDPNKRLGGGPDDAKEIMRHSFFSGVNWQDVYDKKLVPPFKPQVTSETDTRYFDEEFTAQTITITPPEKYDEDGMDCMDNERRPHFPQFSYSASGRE
# [3] = molecular target: T1, AKT3; experiment: cell-based
# Target sequence in this assay (Q9Y243 whole entry): as the sequence (Q9Y243 whole entry, species assumed) above
# [4] = tested on: A2780 cells; experiment: Cytotox survival of A2780 cells after 3 days; format: cell-based; conditions: Homo sapiens, A2780, 72 h
# Experimental: In an alternative assay, the growth inhibitory effect of the compounds was tested on the ovarian carcinoma cell line A2780 using art known cytotoxicity assays such as LIVE/DEAD (Molecular Probes) MTT.
# [5] = molecular target: T2, CDC25B (Homo sapiens, UniProt P30305); experiment: biochemical
# T2 sequence (P30305 1-580): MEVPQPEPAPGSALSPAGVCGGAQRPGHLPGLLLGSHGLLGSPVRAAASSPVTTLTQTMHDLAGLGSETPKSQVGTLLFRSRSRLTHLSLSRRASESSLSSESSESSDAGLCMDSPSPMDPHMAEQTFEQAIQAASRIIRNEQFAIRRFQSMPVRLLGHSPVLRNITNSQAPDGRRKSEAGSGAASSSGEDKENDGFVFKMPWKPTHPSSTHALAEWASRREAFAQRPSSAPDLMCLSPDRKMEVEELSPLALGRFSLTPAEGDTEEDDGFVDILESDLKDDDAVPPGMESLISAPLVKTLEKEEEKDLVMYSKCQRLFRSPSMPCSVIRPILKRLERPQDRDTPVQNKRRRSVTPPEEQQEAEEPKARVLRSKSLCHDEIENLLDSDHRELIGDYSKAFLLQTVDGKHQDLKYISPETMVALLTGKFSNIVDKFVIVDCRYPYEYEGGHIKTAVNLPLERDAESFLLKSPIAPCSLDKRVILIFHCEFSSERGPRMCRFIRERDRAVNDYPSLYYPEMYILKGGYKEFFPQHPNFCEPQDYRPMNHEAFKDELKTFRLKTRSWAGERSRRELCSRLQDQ
# [6] = physchem; conditions: pH 7.4, aqueous buffer, kinetic from dmso stock
# [7] = CDK4 SPA (Ex. C.1): pIC50 values
# [8] = AKT3 pep. (Ex. C.3): pIC50 values
# [9] = AKT cel (Ex. C.6): pIC50 values, MDA-MB 231 cells, phosphorylated MAPK read-out
# [10] = A2780 cells, 3 days, read-out: Cytotox survival of A2780 cells after 3 days - pIC50 values (converted)
# [11] = CDC25B WT (Ex. C.5): pIC50 values
# [12] = read-out: CDK4 SPA (Ex. C.1): pIC50 values (converted)
# [13] = read-out: AKT3 pep. (Ex. C.3): pIC50 values (converted)
# [14] = read-out: Cytotox survival of A2780 cells after 3 days - pIC50 values, A2780 cells, 3 days (converted)
# [15] = read-out: CDC25B WT (Ex. C.5): pIC50 values (converted)
# [16] = read-out: AKT cel (Ex. C.6): pIC50 values (converted)
# CDK4, sequence (P11802 whole entry, species assumed): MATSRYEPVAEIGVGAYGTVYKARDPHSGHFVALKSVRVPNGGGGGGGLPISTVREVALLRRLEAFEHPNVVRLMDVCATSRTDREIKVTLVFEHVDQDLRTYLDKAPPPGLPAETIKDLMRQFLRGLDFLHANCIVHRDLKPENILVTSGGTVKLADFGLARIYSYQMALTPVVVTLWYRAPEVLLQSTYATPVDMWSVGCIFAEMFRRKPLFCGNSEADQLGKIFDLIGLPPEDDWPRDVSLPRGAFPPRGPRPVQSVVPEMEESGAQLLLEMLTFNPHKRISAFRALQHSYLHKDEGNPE
# CDK4, sequence (P24385 whole entry partner, species assumed): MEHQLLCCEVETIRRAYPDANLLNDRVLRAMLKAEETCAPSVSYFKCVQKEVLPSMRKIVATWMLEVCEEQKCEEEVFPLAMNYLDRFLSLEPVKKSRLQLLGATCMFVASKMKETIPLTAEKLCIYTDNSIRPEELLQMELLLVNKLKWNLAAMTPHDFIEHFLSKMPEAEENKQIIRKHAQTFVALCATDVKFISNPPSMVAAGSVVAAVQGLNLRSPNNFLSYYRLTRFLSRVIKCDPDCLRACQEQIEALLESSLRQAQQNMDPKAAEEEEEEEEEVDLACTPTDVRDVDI
smiles,measurement,setting,value
CC(C)n1nc(-c2ccc(CNCCc3cccnc3)cc2)nc2c(=O)n(C)c(=O)nc1-2 [Compound 93],IC50,[1]; [7],193 nM
same,IC50,[2]; [8],279 nM
same,IC50,[3]; [9],> 1000 nM
same,IC50,[4]; [10],272 nM
same,IC50,[5]; [11],49.1 nM
same,solubility,[6],> 1800 µM
CC(C)n1nc(-c2ccc(OCCN3CCCCC3)cc2)nc2c(=O)n(C)c(=O)nc1-2 [Compound 94],IC50,[1]; [12],173 nM
same,IC50,[2]; [13],165 nM
same,IC50,[4]; [14],163 nM
same,IC50,[5]; [15],36.4 nM
same,solubility,[6],> 1800 µM
CC(C)n1nc(-c2ccc(OCCN(C)S(=O)(=O)N(C)C)cc2)nc2c(=O)n(C)c(=O)nc1-2 [Compound 95],IC50,[1]; [12],321 nM
same,IC50,[2]; [13],190 nM
same,IC50,[3]; [16],> 3000 nM
same,IC50,[4]; [14],481 nM
same,IC50,[5]; [15],41.4 nM
same,solubility,[6],160 to 1800 µM
COc1cc(-c2nc3c(=O)n(C)c(=O)nc-3n(C(C)C)n2)cc(OC)c1OCCN1CCN(S(N)(=O)=O)CC1 [Compound 96],IC50,[1]; [12],205 nM
same,IC50,[2]; [13],175 nM
same,IC50,[3]; [16],> 3000 nM
same,IC50,[4]; [14],492 nM
same,IC50,[5]; [15],45 nM
same,solubility,[6],> 1800 µM
CC(C)n1nc(-c2ccc(OCCN3CCN(C)CC3)cc2)nc2c(=O)n(C)c(=O)nc1-2 [Compound 97],IC50,[1]; [12],164 nM
same,IC50,[2]; [13],198 nM
same,IC50,[3]; [16],> 3000 nM
same,IC50,[4]; [14],292 nM
same,IC50,[5]; [15],42.7 nM
same,solubility,[6],> 1800 µM
CC(C)n1nc(-c2ccc(CNC3CCNCC3)cc2)nc2c(=O)n(C)c(=O)nc1-2 [Compound 98],IC50,[1]; [12],200 nM
same,IC50,[2]; [13],194 nM
same,IC50,[3]; [16],> 3000 nM
same,IC50,[4]; [14],488 nM
same,IC50,[5]; [15],58.5 nM
same,solubility,[6],> 1800 µM
CC(C)n1nc(-c2ccc(CNC3CCN(S(=O)(=O)N(C)C)CC3)cc2)nc2c(=O)n(C)c(=O)nc1-2 [Compound 99],IC50,[1]; [12],141 nM
same,IC50,[2]; [13],170 nM
same,IC50,[3]; [16],432 nM
same,IC50,[4]; [14],120 nM
same,IC50,[5]; [15],30.3 nM
same,solubility,[6],> 1800 µM
COCCNCc1ccc(-c2nc3c(=O)n(C)c(=O)nc-3n(C(C)C)n2)cc1 [Compound 100],IC50,[1]; [7],157 nM
same,IC50,[2]; [8],178 nM
same,IC50,[3]; [9],407 nM
same,IC50,[4]; [10],246 nM
same,IC50,[5]; [11],49.9 nM
same,solubility,[6],> 1800 µM
CC(C)n1nc(-c2ccc(OCCN)cc2)nc2c(=O)n(C)c(=O)nc1-2 [Compound 101],IC50,[1]; [7],230 nM
same,IC50,[2]; [8],232 nM
same,IC50,[3]; [9],513 nM
same,IC50,[4]; [10],579 nM
same,IC50,[5]; [11],53.5 nM
same,solubility,[6],> 1800 µM
CC(C)n1nc(-c2ccc(CN3CCN(S(N)(=O)=O)CC3)cc2)nc2c(=O)n(C)c(=O)nc1-2 [Compound 102],IC50,[1]; [7],79.8 nM
same,IC50,[2]; [8],172 nM
same,IC50,[3]; [9],> 3020 nM
same,IC50,[4]; [10],912 nM
same,IC50,[5]; [11],36.5 nM
same,solubility,[6],> 1800 µM
CC(C)n1nc(-c2ccc(CN3CCN(S(=O)(=O)N(C)C)CC3)cc2)nc2c(=O)n(C)c(=O)nc1-2 [Compound 103],IC50,[1]; [12],357 nM
same,IC50,[2]; [13],129 nM
same,IC50,[3]; [16],> 3020 nM
same,IC50,[4]; [14],425 nM
same,IC50,[5]; [15],22.6 nM
same,solubility,[6],160 to 1800 µM
CC(C)n1nc(-c2ccc(OCCNS(=O)(=O)N(C)C)cc2)nc2c(=O)n(C)c(=O)nc1-2 [Compound 109],IC50,[1]; [12],166 nM
same,IC50,[2]; [13],155 nM
same,IC50,[3]; [16],> 3020 nM
same,IC50,[4]; [14],594 nM
same,solubility,[6],160 to 1800 µM
COc1cc(-c2nc3c(=O)n(C)c(=O)nc-3n(C3CCNCC3)n2)ccc1OCCN1CCCCC1 [Compound 152],IC50,[1]; [12],187 nM
same,IC50,[2]; [13],275 nM
same,IC50,[3]; [16],≥ 3000 nM
same,IC50,[4]; [14],630 nM
same,IC50,[5]; [15],25.4 nM
Cn1c(=O)nc2n(C3CCNCC3)nc(-c3ccc(CCCN4CCCCC4)cc3)nc-2c1=O [Compound 155],IC50,[1]; [7],72.6 nM
same,IC50,[2]; [8],232 nM
same,IC50,[3]; [9],469 nM
same,IC50,[4]; [14],177 nM
same,IC50,[5]; [11],36.9 nM
